Values quoted from earlier work in patent US6558710B1, “Topical zinc compositions and methods of use” (priority 1999, dated 2003).
Where two headings read alike, the source gives them in different places.

Key:
[1] = solutions of 0.2-1%, applied circumorally
HIV = conditions: 1-1.5% zinc acetate, 2 hours, in vitro (U.S. Pat. No. 5,545,673)

Row | Compound | dermal irritancy (1% aqueous) | dermal irritancy (20% suspension) | further results
1 | O=S(=O)([O-])[O-].[Zn+2] [zinc sulfate] | not overtly irritant | – | irritation and side effects [1]: severe irritation, unpleasant dryness and stimulate the emetic reflex
2 | CC(=O)[O-].CC(=O)[O-].[Zn+2] [zinc acetate] | – | – | HIV infectivity (HIV): reduced or completely eliminated; dermal irritancy (20% aqueous): slightly less irritant
3 | zinc pyrithione | – | not overtly irritant | –
4 | [O]=[Zn] [zinc oxide] | – | not overtly irritant | stimulation of epidermal healing (in comparison to the more irritating and more water-soluble zinc salts): only marginally effective
5 | [Cl-].[Cl-].[Zn+2] [zinc chloride] | severely irritant | – | –
